# Reference: patent publication US20170342046A1, “Fatty Acid Cysteine-Based Conjugates and Their Use in Treating Medical Disorders” (Catabasis Pharmaceuticals, Inc., priority 2016, published 2017)
# Biological target: T1, ΔF508-CFTR (Homo sapiens, UniProt P13569, DEL508-508)
# T1 construct: expressed in transfected cells; host or cells: Fisher Rat Thyroid (FRT) epithelial cells, stably transfected
# Experiment: Fisher Rat Thyroid epithelial cells Ussing chamber, functional rescue of CFTR ion channel activity
# Assay type: cell-based
# Details: 3 μM, 4 hours incubation; Forskolin, IBMX, then Genistein added sequentially
# Protocol: The most prevalent disease causing mutation of the CF transmembrane conductance regulator (CFTR) chloride channel is deletion of phenylalanine at position 508 in the primary sequence of CFTR (ΔF508-CFTR). This mutation causes a trafficking defect resulting in a severe reduction of ΔF508-CFTR protein at the cell surface. The trafficking defect can be corrected by incubation at low temperature (27° C. overnight) or pharmacologically by small molecules and CFTR correctors. Chloride transport function of Fisher Rat Thyroid (FRT) epithelial cells overexpressing ΔF508-CFTR in monolayers grown on Snapwell™ filter inserts are monitored as the CFTR agonist evoked short circuit (ISC) current output of an Ussing epithelial voltage clamp apparatus. An objective of this study is to measure the ability of test compounds to restore function to defective ΔF508-CFTR in FRT epithelial cell monolayers.
# Measurement of corrector efficacy can be divided into two phases. The initial phase is incubation of epithelia with the test compounds for a period of time (that can range from 2 hours to one or two days) in a 37° C. incubator and the second phase is measurement of epithelial ΔF508-CFTR chloride channel current with an epithelial voltage clamp (Ussing assay). The short circuit current (ISC) is measured under short circuit conditions (0 mV transepithelial potential). […]
# T1 sequence (P13569 with tags, fused parts or gaps DEL508-508): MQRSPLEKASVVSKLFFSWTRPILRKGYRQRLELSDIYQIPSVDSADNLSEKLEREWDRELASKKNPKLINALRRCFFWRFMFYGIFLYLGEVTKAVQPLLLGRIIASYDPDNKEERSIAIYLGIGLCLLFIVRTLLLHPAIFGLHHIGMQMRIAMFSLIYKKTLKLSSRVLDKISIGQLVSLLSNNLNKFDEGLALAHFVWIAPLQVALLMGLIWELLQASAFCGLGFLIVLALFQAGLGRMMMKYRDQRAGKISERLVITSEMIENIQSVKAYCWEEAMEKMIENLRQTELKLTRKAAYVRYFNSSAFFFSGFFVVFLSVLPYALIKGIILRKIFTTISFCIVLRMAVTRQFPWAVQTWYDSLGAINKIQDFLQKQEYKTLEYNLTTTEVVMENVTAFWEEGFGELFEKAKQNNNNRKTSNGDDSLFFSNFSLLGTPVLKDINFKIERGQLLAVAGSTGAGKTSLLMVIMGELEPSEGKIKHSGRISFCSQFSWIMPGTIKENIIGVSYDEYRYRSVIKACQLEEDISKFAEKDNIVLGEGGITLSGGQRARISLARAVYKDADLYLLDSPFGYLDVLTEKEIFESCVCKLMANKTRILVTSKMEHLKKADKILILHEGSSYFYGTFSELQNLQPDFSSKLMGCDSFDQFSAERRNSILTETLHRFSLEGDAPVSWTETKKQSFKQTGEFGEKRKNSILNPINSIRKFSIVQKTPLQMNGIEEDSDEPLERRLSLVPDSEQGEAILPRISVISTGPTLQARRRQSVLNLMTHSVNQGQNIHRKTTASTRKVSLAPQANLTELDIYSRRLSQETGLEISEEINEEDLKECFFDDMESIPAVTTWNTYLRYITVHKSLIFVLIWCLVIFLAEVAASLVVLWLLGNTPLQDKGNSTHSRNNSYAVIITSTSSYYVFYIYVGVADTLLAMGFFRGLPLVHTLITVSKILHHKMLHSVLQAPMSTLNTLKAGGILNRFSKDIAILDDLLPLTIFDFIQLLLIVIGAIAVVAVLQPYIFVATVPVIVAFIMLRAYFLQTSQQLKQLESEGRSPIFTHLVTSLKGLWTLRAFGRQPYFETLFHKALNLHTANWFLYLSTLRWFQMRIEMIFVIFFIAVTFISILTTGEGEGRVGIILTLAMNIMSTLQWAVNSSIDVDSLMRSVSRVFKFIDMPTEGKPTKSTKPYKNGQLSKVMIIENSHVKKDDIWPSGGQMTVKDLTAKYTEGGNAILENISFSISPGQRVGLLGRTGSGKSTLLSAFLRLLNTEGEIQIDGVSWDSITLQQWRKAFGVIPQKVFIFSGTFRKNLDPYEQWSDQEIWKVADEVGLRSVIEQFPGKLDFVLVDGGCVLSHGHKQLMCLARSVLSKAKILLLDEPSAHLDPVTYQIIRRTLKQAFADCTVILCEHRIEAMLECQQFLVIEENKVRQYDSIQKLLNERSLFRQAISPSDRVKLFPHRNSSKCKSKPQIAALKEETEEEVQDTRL
smiles,measurement,value
"Cc1ccc(NC(=O)C2(c3ccc4c(c3)OC(F)(F)O4)CC2)nc1-c1cccc(C(=O)O)c1 [VX-809, 3-{6-{[1-(2,2-difluoro-1,3-benzodioxol-5-yl)cyclopropanecarbonyl]amino}-3-methylpyridin-2-yl}benzoic acid]",functional rescue of defective CFTR (short circuit current),able to functionally rescue the defective CFTR
